The values below come from US20060057628A1, “Method for prognosticating the progress of breast cancer and compounds useful for prevention or treatment thereof” (priority 2003, published 2006).

Structures are written as SMILES.

One assay addresses T1, 17HSD type-2 enzyme (Homo sapiens, UniProt P37059).
T1 construct: expressed in transfected cells; host or cells: MCF-7 cells stably expressing 17HSD type 2
T1 sequence (P37059 1-387): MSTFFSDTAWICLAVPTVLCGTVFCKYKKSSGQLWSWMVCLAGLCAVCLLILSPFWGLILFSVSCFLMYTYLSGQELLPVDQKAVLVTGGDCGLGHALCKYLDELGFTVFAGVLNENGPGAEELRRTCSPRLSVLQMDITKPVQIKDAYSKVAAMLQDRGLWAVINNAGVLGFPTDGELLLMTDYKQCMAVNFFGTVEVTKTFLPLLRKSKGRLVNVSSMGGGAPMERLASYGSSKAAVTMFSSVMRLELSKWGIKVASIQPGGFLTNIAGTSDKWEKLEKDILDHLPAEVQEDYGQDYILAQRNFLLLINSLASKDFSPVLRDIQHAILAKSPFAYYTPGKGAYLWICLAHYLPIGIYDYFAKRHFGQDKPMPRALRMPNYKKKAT
In words: 17HSD type 2 inhibition in MCF-7 cells stably expressing 17HSD type 2 (HPLC detection). It is filed as cell-based. Conditions: MCF-7 cells expressing 17HSD type 2; concentration not given. From the text: (§1) The tested compounds (about 1000 selected different compounds) were screened in respect of 17HSD enzyme activities according to the following method:
(§2) The compounds were screened in respect of 17HSD enzyme activities in vitro on two established MCF-7 cell lines, each stably expressing one 17HSD isoenzyme, either 17HSD type 1 or 17HSD type 2, but not the other one. The interconversion of substrate by each isoenzyme and the HSD-inhibiting activity of chemical compounds in these cell lines was detected by HPLC system (Miettinen et al., Int J Cancer (1996) 68, 600-604).
(§3) Varying amounts of the test compounds were incubated in the growth medium of the 17HSD expressing cells together with tritium labeled substrate (estrone for 17HSD type 1 enzyme; 20 nM). The medium samples were removed after exact incubation time and the reaction was stopped by deepfreezing. The samples were analyzed by HPLC-coupled flow scintillation analysis. The 17HSD-inhibiting activity of the test compounds was compared to known reference compound apigenin and to a negative control.

A further assay deals with T2, 17HSD type 1 (Homo sapiens, UniProt P14061).
T2 sequence (P14061 1-328): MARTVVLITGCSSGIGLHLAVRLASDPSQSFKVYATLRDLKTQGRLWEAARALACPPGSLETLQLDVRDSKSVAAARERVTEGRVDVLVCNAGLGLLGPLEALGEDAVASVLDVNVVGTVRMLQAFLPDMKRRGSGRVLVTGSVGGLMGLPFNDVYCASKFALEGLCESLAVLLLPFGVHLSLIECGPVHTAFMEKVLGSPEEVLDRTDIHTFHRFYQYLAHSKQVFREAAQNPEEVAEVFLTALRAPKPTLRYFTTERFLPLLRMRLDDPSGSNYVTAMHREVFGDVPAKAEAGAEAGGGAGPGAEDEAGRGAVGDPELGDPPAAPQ
Kind of assay: 17HSD type 1 inhibition in MCF-7 cells stably expressing 17HSD type 1 (HPLC detection of tritium labeled estrone conversion). It is filed as cell-based. More on the design: expressed in transfected cells; host or cells: MCF-7 cells stably expressing 17HSD type 1. Conditions: MCF-7 cells expressing 17HSD type 1, substrate estrone 20 nM.
From the text: as §1, §2, §3

Take `O=c1cc(-c2ccc(O)cc2)oc2cc(O)cc(O)c12` [apigenin]: the “inhibition of the 17HSD type-2 enzyme” value against 17HSD type-2 enzyme turned out to be 5%. At 17HSD type 1 (MCF7, concentration 1 μM), this compound returned an inhibition at 1 µM of 48%.

Regarding `O=CC1=C(Sc2ccccc2)c2sc3nc4n(c(=O)c3c2CC1)CCCCC4` [Compound A], the “inhibition of the 17HSD type-2 enzyme” value on 17HSD type-2 enzyme is on record as “did not show any inhibition effect”. Also, the “inhibition of the 17HSD type 1 enzyme” value on 17HSD type 1 (concentration 1 μM) is recorded as 80%; against 17HSD type 1 (concentration 10 μM), 95%.

Usually inhibition stands for the share of the control response that was lost under treatment.
